Results reported in article PMC9798496 (ACS Omega, 2022).
“Also recorded” adds a separate entry of the source.

Tested on: healthy mice
Experiment: MicroPET/CT biodistribution in healthy mice
Format: in vivo
Details: PET/CT

Compound: OC[C@H]1OC(O)[C@H](F)[C@@H](O)[C@@H]1O (some centres unmarked) [[^18F]FDG, fluorodeoxyglucose]
- site of uptake, metabolism and elimination: typical metabolism in the heart, brain, and brown fat; also recorded: uptake was observed in the brain and heart
- uptake in the center of the brain: about 1.6 SUV
- uptake in the center of the heart: about 2.7 SUV
- brain uptake of [18F]FDG relative to [18F]Glc1 (center of the brain): about 20 times
- heart uptake of [18F]FDG relative to [18F]Glc1 (center of the heart): about 14 times
